Laboratory results taken from the supplement of paper PMC11061612.

Legend:
[1] = test system: HT-1197 (Bladder Carcinoma); assay: Bliss excess, mean over the matrix (fraction); higher = more synergy
Summary of the method: (§1)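 Cell lines grown in DMEM/F12 or RPMI with 10% FBS were plated in 1536-well plates and held 24 hours at 37°C, 5% CO2 before 72 hours of exposure to two-drug dose matrices, with DMSO typically at 0.2%. CellTiter-Glo 2.0 luminescence gave viability, which was converted to inhibition. Vehicle wells were set to 0 and blank wells to 1. Combination Emax is the second-highest inhibition in the matrix, and Bliss excess is the observed combination effect minus the expected EA + EB − EA·EB, where EA and EB are the single-agent effects.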

[2] = test system: JJN-3 (Plasma Cell Myeloma); assay: as above
Summary of the method: as §1

[3] = test system: MDA-MB-175-VII (Breast Carcinoma); assay: as above
Summary of the method: as §1

[4] = test system: NCI-H1648 (Lung Adenocarcinoma); assay: as above
Summary of the method: as §1

[5] = test system: NCI-H1975 (Lung Adenocarcinoma); assay: as above
Summary of the method: as §1

[6] = test system: RS4-11 (B-Lymphoblastic Leukemia); assay: as above
Summary of the method: as §1

[7] = test system: SUP-HD1 (Hodgkin's Lymphoma); assay: as above
Summary of the method: as §1

[8] = test system: TOV-21G (Ovarian Carcinoma); assay: as above
Summary of the method: as §1

[9] = test system: ATN-1 (T-Lymphoblastic Leukemia); assay: combination Emax (second highest fraction inhibited in the dose matrix, 72 h); higher = more inhibition; extreme values may be limits of the assay
Summary of the method: as §1

[10] = test system: C2BBe1 (Colorectal Carcinoma); assay: as above
Summary of the method: as §1

[11] = test system: GCIY (Gastric Carcinoma); assay: as above
Summary of the method: as §1

[12] = test system: HT-1197 (Bladder Carcinoma); assay: as above
Summary of the method: as §1

[13] = test system: L-363 (Plasma Cell Myeloma); assay: as above
Summary of the method: as §1

[14] = test system: NCI-H1048 (Small Cell Lung Carcinoma); assay: as above
Summary of the method: as §1

[15] = test system: NCI-H2009 (Lung Adenocarcinoma); assay: as above
Summary of the method: as §1

[16] = test system: RS4-11 (B-Lymphoblastic Leukemia); assay: as above
Summary of the method: as §1

[17] = test system: SBC-5 (Small Cell Lung Carcinoma); assay: as above
Summary of the method: as §1

[18] = test system: SCC90 (Head and Neck Carcinoma); assay: as above
Summary of the method: as §1

[19] = test system: SW1463 (Colorectal Carcinoma); assay: as above
Summary of the method: as §1

[20] = test system: TK (B-Cell Non-Hodgkin's Lymphoma); assay: as above
Summary of the method: as §1
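Throughout, for Bliss excess, mean over the matrix: after 72 h of two-drug dosing.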

Row | Structure (SMILES) | Bliss excess [1] | Bliss excess [2] | Bliss excess [3] | Bliss excess [4] | Bliss excess [5] | Bliss excess [6] | Bliss excess [7] | Bliss excess [8] | combination Emax [9] | combination Emax [10] | combination Emax [11] | combination Emax [12] | combination Emax [13] | combination Emax [14] | combination Emax [15] | combination Emax [16] | combination Emax [17] | combination Emax [18] | combination Emax [19] | combination Emax [20]
1 | CN(C)CCCOc1ccc(-c2ccc3ncc4c(c3c2)n(C2CCOCC2)c(=O)n4C)cn1 [AZD0156] + C=CCn1c(=O)c2cnc(Nc3ccc(N4CCN(C)CC4)cc3)nc2n1-c1cccc(C(C)(C)O)n1 [AZD1775] (first compound max 1 µM, partner max 1 µM) | -0.102 | -0.0271 | -0.0589 | -0.0468 | 0.017 | -0.0405 | -0.0392 | 0.0044 | 1 | 0.209 | 0.63 | 0.486 | 0.985 | 0.664 | 0.557 | 0.881 | 0.423 | 0.777 | 0.422 | 0.945
2 | CN(C)CCCOc1ccc(-c2ccc3ncc4c(c3c2)n(C2CCOCC2)c(=O)n4C)cn1 [AZD0156] + CCN(CCO)CCCOc1ccc2c(Nc3cc(CC(=O)Nc4cccc(F)c4)[nH]n3)ncnc2c1 [AZD2811] (first compound max 1 µM, 7x7, partner max 1 µM) | -0.0376 | 0.09 | -0.018 | -0.0327 | 0.0049 | 0.0512 | 0.0327 | 0.0147 | 0.835 | 0.114 | 0.378 | 0.203 | 0.192 | 0.547 | 0.189 | 0.979 | 0.313 | 0.231 | 0.108 | 0.273
3 | CN(C)CCCOc1ccc(-c2ccc3ncc4c(c3c2)n(C2CCOCC2)c(=O)n4C)cn1 [AZD0156] + C[C@@H]1COCCN1C2=NC(=NC(=C2)C3(CC3)[S@](=N)(=O)C)C4=C5C=CNC5=NC=C4 [AZD6738] (first compound max 1 µM, 7x7, partner max 10 µM) | -0.0362 | 0.161 | -0.0122 | 0.005 | 0.0026 | -0.0192 | -0.0232 | 0.025 | 1 | 0.434 | 0.851 | 0.526 | 0.92 | 0.468 | 0.459 | 0.943 | 0.813 | 0.358 | 0.558 | 0.907
4 | CN(C)CCCOc1ccc(-c2ccc3ncc4c(c3c2)n(C2CCOCC2)c(=O)n4C)cn1 [AZD0156] + O=C(c1cc(Cc2n[nH]c(=O)c3ccccc23)ccc1F)N1CCN(C(=O)C2CC2)CC1 [Olaparib] (first compound max 3 µM, partner max 3 µM) | -0.0404 | 0.0264 | -0.0365 | 0.0271 | 0.0548 | 0.104 | -0.039 | -0.0054 | 0.393 | 0.285 | 0.418 | 0.121 | 0.356 | 0.352 | 0.436 | 0.497 | 0.194 | 0.138 | 0.169 | 0.18
5 | C=CCn1c(=O)c2cnc(Nc3ccc(N4CCN(C)CC4)cc3)nc2n1-c1cccc(C(C)(C)O)n1 [AZD1775] + C[C@@H]1COCCN1C2=NC(=NC(=C2)C3(CC3)[S@](=N)(=O)C)C4=C5C=CNC5=NC=C4 [AZD6738] (first compound max 1 µM, partner max 10 µM) | -0.0057 | 0.0559 | -0.0184 | 0.0111 | 0.0451 | 0.0188 | -0.0282 | -0.0523 | 1 | 0.486 | 0.947 | 0.592 | 0.977 | 0.886 | 0.799 | 0.994 | 0.929 | 0.927 | 0.822 | 0.94
6 | C=CCn1c(=O)c2cnc(Nc3ccc(N4CCN(C)CC4)cc3)nc2n1-c1cccc(C(C)(C)O)n1 [AZD1775] + O=C(c1cc(Cc2n[nH]c(=O)c3ccccc23)ccc1F)N1CCN(C(=O)C2CC2)CC1 [Olaparib] (first compound max 1 µM, partner max 10 µM) | -0.0023 | -0.0591 | -0.0351 | -0.0216 | -0.0248 | -0.0192 | -0.0346 | -0.0126 | 1 | 0.335 | 0.568 | 0.468 | 0.964 | 0.874 | 0.752 | 0.952 | 0.507 | 0.822 | 0.521 | 0.898
7 | CCN(CCO)CCCOc1ccc2c(Nc3cc(CC(=O)Nc4cccc(F)c4)[nH]n3)ncnc2c1 [AZD2811] + C=CCn1c(=O)c2cnc(Nc3ccc(N4CCN(C)CC4)cc3)nc2n1-c1cccc(C(C)(C)O)n1 [AZD1775] (first compound max 1 µM, partner max 1 µM) | -0.114 | -0.0233 | -0.0427 | -0.0388 | 0.0001 | -0.0523 | -0.0238 | 0.0317 | 1 | 0.274 | 0.41 | 0.481 | 0.931 | 0.859 | 0.749 | 0.965 | 0.732 | 0.752 | 0.48 | 0.901
8 | CCN(CCO)CCCOc1ccc2c(Nc3cc(CC(=O)Nc4cccc(F)c4)[nH]n3)ncnc2c1 [AZD2811] + C[C@@H]1COCCN1C2=NC(=NC(=C2)C3(CC3)[S@](=N)(=O)C)C4=C5C=CNC5=NC=C4 [AZD6738] (first compound max 1 µM, 7x7, partner max 10 µM) | -0.0441 | 0.0338 | -0.0307 | -0.0898 | 0.0002 | 0.0023 | 0.0391 | -0.0548 | 1 | 0.279 | 0.851 | 0.424 | 0.807 | 0.804 | 0.431 | 1 | 0.754 | 0.353 | 0.46 | 0.901
9 | CCN(CCO)CCCOc1ccc2c(Nc3cc(CC(=O)Nc4cccc(F)c4)[nH]n3)ncnc2c1 [AZD2811] + O=C(c1cc(Cc2n[nH]c(=O)c3ccccc23)ccc1F)N1CCN(C(=O)C2CC2)CC1 [Olaparib] (first compound max 1 µM, 7x7, partner max 10 µM) | 0.0045 | 0.0422 | -0.0012 | -0.0179 | 0.0034 | 0.0327 | 0.111 | 0.0352 | 0.835 | 0.131 | 0.427 | 0.203 | 0.184 | 0.698 | 0.343 | 0.987 | 0.392 | 0.303 | 0.226 | 0.206
10 | CN(CCO)CC[C@H](CSc1ccccc1)Nc1ccc(S(=O)(=O)NC(=O)c2ccc(N3CCC([C@@H](O)c4ccccc4-c4ccc(Cl)cc4)CC3)cc2)cc1S(=O)(=O)C(F)(F)F [AZD4320] + C=CCn1c(=O)c2cnc(Nc3ccc(N4CCN(C)CC4)cc3)nc2n1-c1cccc(C(C)(C)O)n1 [AZD1775] (first compound max 1 µM, partner max 1 µM) | 0.0626 | -0.0535 | 0.0035 | -0.0353 | 0.0195 | 0.0285 | -0.0383 | -0.0299 | 0.982 | 0.346 | 0.708 | 0.622 | 1 | 1 | 0.764 | 1 | 0.406 | 0.85 | 0.468 | 1
11 | CN(CCO)CC[C@H](CSc1ccccc1)Nc1ccc(S(=O)(=O)NC(=O)c2ccc(N3CCC([C@@H](O)c4ccccc4-c4ccc(Cl)cc4)CC3)cc2)cc1S(=O)(=O)C(F)(F)F [AZD4320] + Cn1cnc2c(F)c(Nc3ccc(Br)cc3Cl)c(C(=O)NOCCO)cc21 [Selumetinib] (first compound max 1 µM, 7x7, partner max 3 µM) | 0.0079 |  | 0.0188 | 0.0177 | 0.0125 | -0.0125 | 0.0036 | 0.0593 | 0.732 | 0.587 | 0.658 | 0.41 | 0.212 | 0.992 | 0.606 | 1 | 0.245 | 0.881 | 0.534 | 0.987
12 | COc1nnc2ccc(N3CCC(c4ccc(OCCN5CCN(C)C(=O)[C@H]5C)cc4)CC3)nn12 [AZD5153] + CN(CC[C@H](CSC1=CC=CC=C1)NC2=C(C=C(C=C2)S(=O)(=O)NC(=O)C3=CC=C(C=C3)N4CCC(CC4)[C@H](C5=CC=CC=C5C6=CC=C(C=C6)Cl)O)S(=O)(=O)C(F)(F)F)CCO [AZD4320] (first compound max 1 µM, 7x7, partner max 1 µM) | 0.073 | -0.0443 |  |  | -0.012 | 0.0211 | -0.0094 | 0.0211 | 0.718 | 0.611 |  | 0.845 |  | 0.801 |  | 1 | 0.534 | 0.588 |  | 1
13 | CC(=O)c1c(C)c2cnc(Nc3ccc(N4CCNCC4)cn3)nc2n(C2CCCC2)c1=O [Palbociclib] + CN(CC[C@H](CSC1=CC=CC=C1)NC2=C(C=C(C=C2)S(=O)(=O)NC(=O)C3=CC=C(C=C3)N4CCC(CC4)[C@H](C5=CC=CC=C5C6=CC=C(C=C6)Cl)O)S(=O)(=O)C(F)(F)F)CCO [AZD4320] (first compound max 10 µM, 7x7, partner max 1 µM) | -0.0184 | -0.014 |  |  | -0.0291 | -0.0308 | -0.0407 | -0.0853 | 0.772 | 0.318 |  | 0.338 |  | 0.677 |  | 1 | 0.251 | 0.862 |  | 0.996
